Measured values from US20110288032A1, “ENZASTAURIN FOR THE TREATMENT OF CANCER” (ELI LILLY AND COMPANY, priority 2008, published 2011).

How the values were obtained:
Format in all cases: cell-based, human
[1] = test system: RKO (HDAC 2+/−); experiment: Enzastaurin drug dose response, CellTiter Glo cell viability; conditions: RKO cells
Protocol: (§1) The human colon cancer cell line, HCT116 (HDAC 2 w.t), and RKO (HDAC 2+/−), a cell line containing a nonsense mutation resulting in null protein expression of HDAC2 relative to HCT116, are obtained from American Tissue Culture Collection, ATCC (Rockville, Md., USA) and cultured in the ATCC recommended growth medium supplemented with 2 mM L-glutamine and 10% FBS, in a humidified 37° C. incubator with 5% CO2. Drug dose response experiments are performed by seeding 1000-2000 cells diluted in McCoy's 5A medium containing 25 mM N-2-hydroxyethylpiperazine-N′-2-ethanesulfonic acid (HEPES), 2 mM L-glutamine and 2% fetal bovine serum (FBS) followed by treatment with or without serial dilutions of Enzastaurin (0-100 μM) in 1% DMSO. Seventy-two or ninety-six hours later, cell viability is measured using chemiluminescence based CellTiter Glo (Promega) assay readout, according to manufacturer's recommendations. Raw signal values are normalized to untreated control and analyzed by non-linear curve fitting in GraphPad Prism (La Jolla, Calif., USA).

[2] = test system: HCT116 (HDAC 2 w.t); experiment: as above; conditions: HCT116 cells
Protocol: as §1

[3] = test system: HCT116 cells; experiment: siRNA sensitization of Enzastaurin drug response, CellTiter Glo cell viability; conditions: for IC50: Homo sapiens, HCT-116, 72 h, 72 h Enzastaurin
Protocol: HCT116 cells are obtained from American Tissue Culture Collection, ATCC (Rockville, Md., USA) and cultured in McCoy's 5A medium supplemented with 2 mM L-glutamine and 10% fetal bovine serum (FBS), in a humidified 37° C. incubator with 5% CO2. Plates (384-well) are pre-printed using 2 siRNAs per target in the Druggable Genome v2 Library (Qiagen) such that each well contains 13 nM of an individual siRNA duplex. High throughput reverse transfections are performed by adding transfection agent Lipofectamine 2000 (Invitrogen) and 1500 cells diluted in McCoy's 5A medium supplemented with 2 mM L-glutamine and 2% FBS into each well following a standard reverse transfection protocol. Twenty-four hours post transfection, each assay plate is treated with or without 5 concentrations (0-10 μM) of Enzastaurin in 1% DMSO. Seventy-two hours later, cell viability is measured using chemiluminescence based CellTiter Glo (Promega) assay readout, according to manufacturer's recommendations. UBB siRNA (Qiagen) is the positive cell killing control and All Star Non-silencing (NS-AS) or green fluorescent protein (GFP) is the negative control. Raw signal values are normalized to untreated control wells to compare across plates. These are fit to a 4-parameter logistical model to determine IC50 values. A ‘shift’ in IC50 with respect to the negative control (described above) is calculated as: (IC50 target−IC50 control) divided by IC50 control.

IC50 ([2]; Homo sapiens, HCT-116, 72 or 96 h): 8340 nM
SMILES: Cn1cc(C2=C(c3cn(C4CCN(Cc5ccccn5)CC4)c4ccccc34)C(=O)NC2=O)c2ccccc21 [Enzastaurin, 3-(1-methyl-1H-indol-3-yl)-4-[1-[1-(pyridin-2-ylmethyl)piperidin-4-yl]-1H-indol-3-yl]-1H-pyrrole-2,5-dione]
IC50 ([1]; Homo sapiens, 72 or 96 h): 3560 nM | maximum killing effect [1]: 95-100% | maximum killing effect [2]: 50-60% | shift in IC50 values relative to negative control ([3]; HCT116, three siRNAs that target HDAC2): > 2 fold | cell killing in high content images ([3]; HCT116 treated with Enzastaurin and HDAC2 siRNA relative to negative controls and either condition alone, data not shown): higher degree of cell killing | IC50 ([3]; HCT116, HDAC2 siRNA: None (negative control)): 3690 nM | IC50 ([3]; HCT116 transfected with HDAC2 siRNA SEQ ID NO: 1): 1360 nM | IC50 ([3]; HCT116 transfected with HDAC2 siRNA SEQ ID NO: 2): 1680 nM | IC50 ([3]; HCT116 transfected with HDAC2 siRNA SEQ ID NO: 3): 2010 nM
